The target of the experiment is recombinant Plk1 (Homo sapiens, UniProt P53350). Description: In Vitro Plk1 Enzyme Assay (SPA, GST-Cdc25C phosphorylation). The following applies: ATP 64 nM, 90 minutes, read-out: IC50 (Plk1 enzyme inhibition). It counts as biochemical.

In patent publication US7709471B2, “Compounds” (AstraZeneca AB, priority 2006, dated 2010) one finds IC50 data, which are given here for 31 compounds.

Bounds are passed on as bounds.

Chain of recombinant Plk1 (P53350 whole entry): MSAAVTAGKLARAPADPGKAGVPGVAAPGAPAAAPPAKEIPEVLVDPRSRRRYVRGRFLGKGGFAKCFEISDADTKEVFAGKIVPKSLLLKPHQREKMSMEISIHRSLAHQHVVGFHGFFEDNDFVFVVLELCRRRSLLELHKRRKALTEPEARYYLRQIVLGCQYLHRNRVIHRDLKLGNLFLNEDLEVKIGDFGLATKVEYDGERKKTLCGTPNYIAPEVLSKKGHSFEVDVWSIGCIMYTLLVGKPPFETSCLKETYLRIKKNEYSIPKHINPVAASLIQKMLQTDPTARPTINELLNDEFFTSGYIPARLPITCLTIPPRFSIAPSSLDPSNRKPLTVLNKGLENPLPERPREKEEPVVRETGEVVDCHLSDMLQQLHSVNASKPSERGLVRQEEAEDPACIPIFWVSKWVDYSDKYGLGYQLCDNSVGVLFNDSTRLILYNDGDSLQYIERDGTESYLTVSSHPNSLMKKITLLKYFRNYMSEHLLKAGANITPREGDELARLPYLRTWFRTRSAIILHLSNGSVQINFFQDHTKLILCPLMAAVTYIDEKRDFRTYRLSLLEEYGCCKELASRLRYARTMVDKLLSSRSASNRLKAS
Experimental: Reactions were stopped by addition of EDTA (110 mM) and the Cdc25C substrate captured via its GST tag to anti-GST antibody (Molecular Probes, Cat No A-5800) coated Protein A PVT SPA beads (Amersham Biosciences, Catalogue No. RPQ0019; 250 μg/well) in 50 mM HEPES pH7.5 buffer containing 0.05% (w/v) sodium azide and incubated for up to 2 hours, followed by the addition of 20 μl of 4M caesium chloride (final assay concentration of 1M). Plates were then left in the dark overnight before counting on a Packard TopCount NXT.
Radiolabelled phosphorylated substrate is formed in situ as a result of Plk1 mediated phosphorylation. The SPA beads contain a scintillant that can be stimulated to emit light. This stimulation only occurs when a radiolabelled phosphorylated substrate is bound to the surface of the coated SPA bead causing the emission of blue light that can be measured on a scintillation counter. Accordingly, the extent of Plk1 mediated Cdc25C phosphorylation was assessed. The raw assay data were then analysed by non-linear regression analysis and Plk1 enzyme inhibition for a given test compound is expressed as an IC50 value.

A word on the IC50: it is the concentration that gives 50% inhibition. With `CCCCc1ccccc1Nc1ncc2c(n1)N(C1CCCC1)CCC(=O)N2C` [Example 151, 9-[(2-butylphenyl)amino]-6-cyclopentyl-2-methyl-2,6,8,10-tetrazabicyclo[5.4.0]undeca-8,10,12-trien-3-one], the IC50 is below 100 µM.

With `COc1cccc(Nc2ncc3c(n2)N(C2CCCC2)CCC(=O)N3C)c1` [Example 161, 6-cyclopentyl-9-[(3-methoxyphenyl)amino]-2-methyl-2,6,8,10-tetrazabicyclo[5.4.0]undeca-8,10,12-trien-3-one], the IC50 was below 1 µM.

As for `Cc1nc(Nc2ncc3c(n2)N(C2CCCC2)CCC(=O)N3C)sc1C(=O)NC1CCN(C)CC1` [Example 262, 2-[(6-cyclopentyl-2-methyl-3-oxo-2,6,8,10-tetrazabicyclo[5.4.0]undeca-8,10,12-trien-9-yl)amino]-4-methyl-N-(1-methyl-4-piperidyl)1,3-thiazole-5-carboxamide], the IC50 is below 1 µM.

For `CC(C)N1CCC(=O)N(C)c2cnc(Nc3ccc(C(=O)NCC(C)(C)CN(C)C)cc3)nc21` [Example 222, N-(3-dimethylamino-2,2-dimethyl-propyl)-4-[(2-methyl-3-oxo-6-propan-2-yl-2,6,8,10-tetrazabicyclo[5.4.0]undeca-7,9,11-trien-9-yl)amino]benzamide], the IC50 was below 0.3 µM.

As for `CN1C(=O)c2cccc(Nc3ncc4c(n3)N(C3CCCC3)CCC(=O)N4C)c2C1=O` [Example 137, 4-[(6-cyclopentyl-2-methyl-3-oxo-2,6,8,10-tetrazabicyclo[5.4.0]undeca-8,10,12-trien-9-yl)amino]-2-methyl-isoindole-1,3-dione], the IC50 is below 100 µM.

Take `CN1CCC(NC(=O)c2ccc(Nc3ncc4c(n3)N(C3CCCC3)CCC(=O)N4)cc2)CC1` [Example 254, 4-[(6-cyclopentyl-3-oxo-2,6,8,10-tetrazabicyclo[5.4.0]undeca-8,10,12-trien-9-yl)amino]-N-(1-methyl-4-piperidyl)benzamide]: the half-maximal inhibitory concentration (IC50) is below 100 µM.

With `CN1C(=O)CCN(C2CCCC2)c2nc(Nc3ccccc3Oc3ccc(C(C)(C)C)cc3)ncc21` [Example 153, 6-cyclopentyl-2-methyl-9-[[2-(4-tert-butylphenoxy)phenyl]amino]-2,6,8,10-tetrazabicyclo[5.4.0]undeca-8,10,12-trien-3-one], the half-inhibitory concentration (IC50) was below 100 µM.

For `COc1cc(C(=O)NC2CCN(C)CC2)ccc1Nc1ncc2c(n1)N(CC(C)C)CCC(=O)N2C` [Example 211, 3-methoxy-4-[[2-methyl-6-(2-methylpropyl)-3-oxo-2,6,8,10-tetrazabicyclo[5.4.0]undeca-7,9,11-trien-9-yl]amino]-N-(1-methyl-4-piperidyl)benzamide], the half-inhibitory concentration (IC50) is below 0.3 µM.

Take `CCN1C(=O)CCN(C2CCCC2)c2nc(Nc3ccc(C(=O)NC4CCN(C)CC4)cc3OC)ncc21` [Example 259, 4-[(6-cyclopentyl-2-ethyl-3-oxo-2,6,8,10-tetrazabicyclo[5.4.0]undeca-8,10,12-trien-9-yl)amino]-3-methoxy-N-(1-methyl-4-piperidyl)benzamide]: the IC50 is below 1 µM.

Consider `COc1cc(C(=O)N[C@@H]2CC[C@H](C(=O)O)C2)ccc1Nc1ncc2c(n1)N(C1CCCC1)CCC(=O)N2C` [Example 87, (1S,3R)-3-[[4-[(6-cyclopentyl-2-methyl-3-oxo-2,6,8,10-tetrazabicyclo[5.4.0]undeca-8,10,12-trien-9-yl)amino]-3-methoxy-benzoyl]amino]cyclopentane-1-carboxylic acid], for which the IC50 is below 0.3 µM.

With `CN1CCC(NC(=O)c2csc(Nc3ncc4c(n3)N(C3CCCC3)CCC(=O)N4C)n2)CC1` [Example 261, 2-[(6-cyclopentyl-2-methyl-3-oxo-2,6,8,10-tetrazabicyclo[5.4.0]undeca-8,10,12-trien-9-yl)amino]-N-(1-methyl-4-piperidyl)1,3-thiazole-4-carboxamide], the IC50 was below 100 µM.

On to `CNC(=O)c1ccc(Nc2ncc3c(n2)N(C2CCCC2)CCC(=O)N3C)cc1` [Example 102, 4-[(6-cyclopentyl-2-methyl-3-oxo-2,6,8,10-tetrazabicyclo[5.4.0]undeca-8,10,12-trien-9-yl)amino]-N-methyl-benzamide], for which the IC50 was below 0.3 µM.

`CCc1cccc(Nc2ncc3c(n2)N(C2CCCC2)CCC(=O)N3C)c1` [Example 166, 6-cyclopentyl-9-[(3-ethylphenyl)amino]-2-methyl-2,6,8,10-tetrazabicyclo[5.4.0]undeca-8,10,12-trien-3-one]: the IC50 is below 100 µM.

As to `COc1cc(Nc2ncc3c(n2)N(C2CCCC2)CCC(=O)N3C)cc(OC)c1OC` [Example 129, 6-cyclopentyl-2-methyl-9-[(3,4,5-trimethoxyphenyl)amino]-2,6,8,10-tetrazabicyclo[5.4.0]undeca-8,10,12-trien-3-one], the IC50 is below 1 µM.

For the compound `COCC(C)N1CCC(=O)Nc2cnc(Nc3ccc(C(=O)NC4CCN(C)CC4)cc3OC)nc21` (stereo not shown) [Example 258, 3-methoxy-4-[[6-(1-methoxypropan-2-yl)-3-oxo-2,6,8,10-tetrazabicyclo[5.4.0]undeca-7,9,11-trien-9-yl]amino]-N-(1-methyl-4-piperidyl)benzamide], the IC50 was below 100 µM.

With `COc1cc(C(=O)NC2CCCCC2)ccc1Nc1ncc2c(n1)N(CCN1CCCCC1)CCC(=O)N2C` [Example 276, N-cyclohexyl-3-methoxy-4-[[6-methyl-5-oxo-2-[2-(1-piperidyl)ethyl]-2,6,9,11-tetrazabicyclo[5.4.0]undeca-7,9,11-trien-10-yl]amino]benzamide], the IC50 is below 100 µM.

On to `CCOc1ccccc1Nc1ncc2c(n1)N(C1CCCC1)CCC(=O)N2C` [Example 140, 6-cyclopentyl-9-[(2-ethoxyphenyl)amino]-2-methyl-2,6,8,10-tetrazabicyclo[5.4.0]undeca-8,10,12-trien-3-one], for which the IC50 is below 100 µM.

Take “6-cyclopentyl-9-[[5-(3-dimethylaminopyrrolidin-1-yl)-2-methoxy-phenyl]amino]-2-methyl-2,6,8,10-tetrazabicyclo[5.4.0]undeca-8,10,12-trien-3-one [Example 182]”: the IC50 is below 1 µM.

Regarding `COc1cc(C(=O)NC2CCN(C)CC2)ccc1Nc1ncc2c(n1)N(C1CCOCC1)CCC(=O)N2C` [Example 9, 3-Methoxy-4-[[6-methyl-2-(oxan-4-yl)-5-oxo-2,6,9,11-tetrazabicyclo[5.4.0]undeca-7,9,11-trien-10-yl]amino]-N-(1-methyl-4-piperidyl)benzamide], the IC50 was below 0.3 µM.

Regarding `CSc1cccc(Nc2ncc3c(n2)N(C2CCCC2)CCC(=O)N3C)c1` [Example 163, 6-cyclopentyl-2-methyl-9-[(3-methylsulfanylphenyl)amino]-2,6,8,10-tetrazabicyclo[5.4.0]undeca-8,10,12-trien-3-one], the 50% inhibitory concentration (IC50) is below 100 µM.

For `CN1C(=O)CCN(C2CCCC2)c2nc(Nc3ccncc3)ncc21` [Example 268, 6-cyclopentyl-2-methyl-9-(pyridin-4-ylamino)-2,6,8,10-tetrazabicyclo[5.4.0]undeca-8,10,12-trien-3-one], the IC50 was below 100 µM.

Regarding `CN1C(=O)CCN(C2CCCC2)c2nc(Nc3ccc(N4CCOCC4)cc3)ncc21` [Example 121, 6-cyclopentyl-2-methyl-9-[(4-morpholin-4-ylphenyl)amino]-2,6,8,10-tetrazabicyclo[5.4.0]undeca-8,10,12-trien-3-one], the IC50 was below 100 µM.

As for `COc1cc(C(=O)NCCN2CCOCC2)ccc1Nc1ncc2c(n1)N(C1CCCC1)CCC(=O)N2` [Example 250, 4-[(6-cyclopentyl-3-oxo-2,6,8,10-tetrazabicyclo[5.4.0]undeca-8,10,12-trien-9-yl)amino]-3-methoxy-N-(2-morpholin-4-ylethyl)benzamide], the IC50 was below 1 µM.

On to `CN(C)CCOc1ccc(Nc2ncc3c(n2)N(C2CCCC2)CCC(=O)N3C)cc1` [Example 118, 6-cyclopentyl-9-[[4-(2-dimethylaminoethoxy)phenyl]amino]-2-methyl-2,6,8,10-tetrazabicyclo[5.4.0]undeca-8,10,12-trien-3-one], for which the IC50 is below 100 µM.

Regarding `CN1C(=O)CCN(C2CCCC2)c2nc(Nc3ccccc3S(N)(=O)=O)ncc21` [Example 145, 2-[(6-cyclopentyl-2-methyl-3-oxo-2,6,8,10-tetrazabicyclo[5.4.0]undeca-8,10,12-trien-9-yl)amino]benzenesulfonamide], the IC50 was below 100 µM.

Regarding `CN1C(=O)CCN(C2CCCC2)c2nc(Nc3cccc(S(=O)(=O)N4CCOCC4)c3)ncc21` [Example 183, 6-cyclopentyl-2-methyl-9-[(3-morpholin-4-ylsulfonylphenyl)amino]-2,6,8,10-tetrazabicyclo[5.4.0]undeca-8,10,12-trien-3-one], the IC50 was below 100 µM.

As to `CN1C(=O)CCN(C2CCCC2)c2nc(Nc3ccc(C#N)c(C(F)(F)F)c3)ncc21` [Example 116, 4-[(6-cyclopentyl-2-methyl-3-oxo-2,6,8,10-tetrazabicyclo[5.4.0]undeca-8,10,12-trien-9-yl)amino]-2-(trifluoromethyl)benzonitrile], the IC50 was below 100 µM.

With `CN1C(=O)CCN(C2CCCC2)c2nc(Nc3ccc(S(=O)(=O)NCCO)cc3)ncc21` [Example 117, 4-[(6-cyclopentyl-2-methyl-3-oxo-2,6,8,10-tetrazabicyclo[5.4.0]undeca-8,10,12-trien-9-yl)amino]-N-(2-hydroxyethyl)benzenesulfonamide], the IC50 was below 100 µM.

Regarding `CN1C(=O)CCN(C2CCCC2)c2nc(Nc3ccccc3O)ncc21` [Example 142, 6-cyclopentyl-9-[(2-hydroxyphenyl)amino]-2-methyl-2,6,8,10-tetrazabicyclo[5.4.0]undeca-8,10,12-trien-3-one], the concentration for half-maximal inhibition (IC50) is below 0.3 µM.

With `COc1cc(C(=O)NC2CCN(C)CC2)ccc1Nc1ncc2c(n1)N(Cc1csc(C)n1)CCC(=O)N2C` [Example 216, 3-methoxy-4-[[2-methyl-6-[(2-methyl1,3-thiazol-4-yl)methyl]-3-oxo-2,6,8,10-tetrazabicyclo[5.4.0]undeca-7,9,11-trien-9-yl]amino]-N-(1-methyl-4-piperidyl)benzamide], the IC50 is below 1 µM.

For the compound `CN1C(=O)CCN(C2CCCC2)c2nc(Nc3cccc(C(=O)c4ccccc4)c3)ncc21` [Example 169, 9-[(3-benzoylphenyl)amino]-6-cyclopentyl-2-methyl-2,6,8,10-tetrazabicyclo[5.4.0]undeca-8,10,12-trien-3-one], the IC50 is below 100 µM.
